Results on five molecules are retold here after US6518399B1, “Receptor” (Smithkline Beecham Corporation, priority 1998, dated 2003).

T1: HA-GABAB-R2 (Homo sapiens, UniProt O75899)
T1 construct: heterodimerisation between full-length expressed GABAB-R1 and GABAB-R2 in mammalian cells; expressed in transfected cells; host or cells: HEK293T
T1 sequence (O75899 42-941): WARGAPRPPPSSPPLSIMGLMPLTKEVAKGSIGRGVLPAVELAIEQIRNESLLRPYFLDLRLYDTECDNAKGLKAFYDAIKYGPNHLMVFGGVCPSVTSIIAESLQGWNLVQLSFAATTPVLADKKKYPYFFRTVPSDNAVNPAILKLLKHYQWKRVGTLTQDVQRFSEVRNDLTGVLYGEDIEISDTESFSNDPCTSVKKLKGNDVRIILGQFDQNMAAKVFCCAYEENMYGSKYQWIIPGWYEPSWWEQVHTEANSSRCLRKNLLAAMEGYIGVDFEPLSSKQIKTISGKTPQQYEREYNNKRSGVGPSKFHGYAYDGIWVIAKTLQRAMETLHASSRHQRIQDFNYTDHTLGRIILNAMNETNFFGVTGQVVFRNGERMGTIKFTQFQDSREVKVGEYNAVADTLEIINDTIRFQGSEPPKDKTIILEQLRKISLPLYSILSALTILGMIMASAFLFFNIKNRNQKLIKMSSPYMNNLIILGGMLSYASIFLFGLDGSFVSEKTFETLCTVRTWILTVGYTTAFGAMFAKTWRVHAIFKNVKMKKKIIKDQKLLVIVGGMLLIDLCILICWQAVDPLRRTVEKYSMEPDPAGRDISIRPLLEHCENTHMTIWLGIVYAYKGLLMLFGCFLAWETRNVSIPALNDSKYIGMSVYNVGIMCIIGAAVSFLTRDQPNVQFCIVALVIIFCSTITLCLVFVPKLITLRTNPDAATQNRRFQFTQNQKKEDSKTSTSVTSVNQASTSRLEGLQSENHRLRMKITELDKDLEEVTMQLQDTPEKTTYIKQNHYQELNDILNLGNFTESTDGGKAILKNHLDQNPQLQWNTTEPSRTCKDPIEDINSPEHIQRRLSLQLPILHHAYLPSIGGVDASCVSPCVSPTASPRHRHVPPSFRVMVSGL

B1: GABAB-R2 C-terminal domain, GAL4 fusion (receptor, not shown: small tags and cut ends)
chain: VPKLITLRTNPDAATQNRRFQFTQNQKKEDSKTSTSVTSVNQASTSRLEGLQSENHRLRMKITELDKDLEEVTMQLQDTPEKTTYIKQNHYQELNDILNLGNFTESTDGGKAILKNHLDQNPQLQWNTTEPSRTCKDPIEDINSPEHIQRRLSLQLPILHHAYLPSIGGVDASCVSPCVSPTASPRHRHVPPSFRVMVSGL
notes: Only the intracellular C-terminal domain of GABAB-R2 was used; also called GABAB-R2 C-terminus; YTH HITS
B2: GABAB-R1 C-terminal domain (C-terminal 108 amino acids of GABAB-R1), GAL4 fusion (receptor, not shown: small tags and cut ends)
chain: VPKMRRLITRGEWQSEAQDTMKTGSSTNNNEEEKSRLLEKENRELEKIIAEKEERVSELRHQLQSRQQLRSRRHPPTPPEPSGGLPRGPPEPPDRLSCDGSRVHLLYK
notes: Used as GAL4BD fusion in the library screen and as both GAL4BD and GAL4AD fusions in the direct test (all combinations); also called GABAB-R1 C-terminus; GAL4BD-GABAB-R1 C-terminus

In one series the target is T1, HA-GABAB-R2. As to the kind of experiment: [3H]-CGP54626 binding, HEK293T cells transfected with HA-GABAB-R2 alone. As to conditions: HA-GABAB-R2 alone (data not shown). The source says: […]. […] […]
The target in the next series is HA-GABAB-R1b (Homo sapiens, UniProt Q9UBS5). Put plainly: [3H]-CGP54626 binding, HEK293T membranes expressing HA-GABAB-R1b alone. The following applies: HA-GABAB-R1b expressed alone.
Chain of HA-GABAB-R1b (Q9UBS5 30-844 isoform Q9UBS5-2 limits assumed): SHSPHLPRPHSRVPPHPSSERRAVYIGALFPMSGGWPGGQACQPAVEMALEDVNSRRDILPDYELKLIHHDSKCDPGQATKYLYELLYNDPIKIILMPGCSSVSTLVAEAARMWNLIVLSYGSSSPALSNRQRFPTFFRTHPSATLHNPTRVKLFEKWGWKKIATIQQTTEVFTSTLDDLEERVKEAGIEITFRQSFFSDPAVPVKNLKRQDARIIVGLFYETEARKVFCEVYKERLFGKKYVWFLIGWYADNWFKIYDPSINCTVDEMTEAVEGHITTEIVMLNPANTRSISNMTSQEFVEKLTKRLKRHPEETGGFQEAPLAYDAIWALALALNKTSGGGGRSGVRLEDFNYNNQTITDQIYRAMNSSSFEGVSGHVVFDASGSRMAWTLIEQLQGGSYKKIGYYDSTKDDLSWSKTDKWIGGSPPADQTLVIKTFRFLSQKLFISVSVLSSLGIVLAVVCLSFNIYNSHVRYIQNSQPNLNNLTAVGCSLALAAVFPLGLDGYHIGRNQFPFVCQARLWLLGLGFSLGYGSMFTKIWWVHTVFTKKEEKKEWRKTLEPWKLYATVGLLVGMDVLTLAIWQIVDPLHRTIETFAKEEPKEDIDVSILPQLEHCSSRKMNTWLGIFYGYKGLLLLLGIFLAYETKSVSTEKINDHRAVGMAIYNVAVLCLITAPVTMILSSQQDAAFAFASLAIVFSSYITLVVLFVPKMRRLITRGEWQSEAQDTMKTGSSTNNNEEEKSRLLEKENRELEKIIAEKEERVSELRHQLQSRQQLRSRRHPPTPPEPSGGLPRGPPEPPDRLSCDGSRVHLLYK
Series [1] relates to GABAB-R1a, GABAB-R1b or GABAB-R2 receptors expressed alone. It is filed as cell-based, human. The following applies: for Functional response, CFTR or GIRK1/4 current: GABAB-R1a, GABAB-R1b or GABAB-R2 expressed singly with CFTR or GIRK1/4. The protocol:
Adult female Xenopus laevis (Blades Biologicals) were anaesthetised using 0.2% tricaine (3-aminobenzoic acid ethyl ester), killed and the ovaries rapidly removed. […] Single stage V and VI oocytes were transferred to ND96 solution (96 mM NaCl, 2 mM KCl, 1 mM MgCl2, 1.8 mM CaCl2, 5 mM HEPES; pH 7.5 at 25° C.) which contained 50 μg ml^−1 gentamycin and stored at 18° C.
GABAB-R1a, GABAB-R1b (both in pcDNA3.1rev, Invitrogen), GABAB-R2, GIRK1, GIRK4 (in pcDNA3) and cystic fibrosis transmembrane regulator (CFTR; in pBluescript, Stratagene) were linearised and transcribed to RNA using T7 or T3 polymerase (Promega Wizard kit). m′G(5′)pp(5′)GTP capped cRNA was injected into oocytes (20-50 nl of 1 μgμl^−1 RNA per oocyte) and whole-cell currents were recorded using two-microelectrode voltage-clamp (Geneclamp amplifier, Axon instruments Inc.) 3 to 7 days post-RNA injection. […] In all experiments oocytes were voltage-clamped at a holding potential of −60 mV in ND96 solution (superfused at 2 ml per min.) and agonists were applied by addition to this extracellular solution. In GIRK experiments the extracellular solution was changed to a high potassium solution prior to agonist application, to facilitate the recording of inward potassium currents. Current-voltage curves were constructed by applying 200 ms voltage-clamp pulses from the holding potential of […] to test potentials between −100 mV and +50 mV.

Series [2] concerns the molecule itself. As to the kind of experiment: yeast two hybrid, GAL4BD and GAL4AD fusions of the C-termini (FIG. 5).
Series [3] deals with the molecule itself. Put plainly: yeast two hybrid, GAL4BD and GAL4AD fusions of the C-termini (FIG. 5); the library screen also did not retrieve the GABAB-R1 C-terminal domain.
Series [4] has as its target B1. As to the kind of experiment: yeast two hybrid, direct test of the C-termini (β-galactosidase, FIG. 5); GABAB-R2 C-terminal domain also recovered 33 times in the library screen with the GABAB-R1 bait.

Protocol for HA-GABAB-R1b: Competition binding assays were performed in 50 mM Tris HCl buffer (pH7.4) containing 40 μM isoguvacine (Tocris Cookson) to block rat brain GABAA binding sites. P2 membrane preparations were made from HEK293T cells transfected using conditions described above. […] Assay conditions were 0.4-0.6 nM [^3H]-CGP54626, incubated with 50 μg/tube crude rat brain ‘mitochondrial’ fractions or 25 μg/tube HEK293T P2 membranes at room temperature for 20 minutes.

Consider `C[C@H](NC[C@H](O)CP(=O)(O)CC1CCCCC1)c1ccc(Cl)c(Cl)c1` [[3H]-CGP54626], for which the “Specific binding of radioligand” value at HA-GABAB-R2 is “unable to detect any [3H]-CGP54626 specific binding”; on HA-GABAB-R1b it was “high levels of specific binding”. In the case of `NCCCC(=O)O` [GABA, γ-amino-butyric acid], in series [1] (GABAB-R1a and GABAB-R1b expressed alone (data not shown)), the “Functional response, GIRK1/4 current” value is “gave no response to GABA”. In addition, the “Functional response, CFTR or GIRK1/4 current” value in series [1] was “No functional responses”. For the molecule `NCC(CC(=O)O)c1ccc(Cl)cc1` (centres unmarked) [Baclofen], the “Functional response, CFTR or GIRK1/4 current” value in series [1] was “No functional responses”.

For B1, in series [2], the binding result is given as “no binding”. In the case of B2, the binding result in series [3] was “no binding”; in series [4], “binds”.
